Results reported in patent publication US20250059182A1, “SOS1 INHIBITORS” (Mirati Therapeutics, Inc., priority 2021, published 2025).
Where a name gives a salt, the structure may show the parent alone. Read-outs that look alike come from different tables or passages of the source.

How the values were obtained:
pERK in MKN1 cells = experiment: pERK inhibition, In-Cell Western (LI-COR Odyssey), MKN1 cells; type: cell-based; conditions: Homo sapiens
Experimental: This Example illustrates that exemplary compounds of the present invention prevent KRas-mediated GTP nucleotide exchange mediated by SOS1 to inhibit KRas activity thereby inhibiting the generation of the downstream effector pERK.
MKN1 cells (15,000/w) or H358 (30,000/w) were seeded in a black clear flat bottom 96-well cell culture plate (Corning, #3904) and incubated at 37° C. overnight. Assay day 1, cells were dosed with compounds of Formula (I) with a 10 μm starting concentration and serially diluted 3× for a total of 9 concentrations. The cells were incubated for approximately 0.5-1 hour with the compounds solubilized in DMSO at 37° C. Cells were immediately fixed by adding 50 μL of 4% formaldehyde to all wells in a fume hood and the plates were incubated for 20 minutes at room temperature. The formaldehyde was discarded from the plates and 150 μL of ice-cold methanol was added to permeabilize the cells for 10 minutes at −20° C. The methanol was discarded from each of the plates and any liquid remaining in the plate by tapping the plate against paper towels. Cells were then blocked with 150 μL of Odyssey blocking buffer (LI-COR Biosciences #927-50010) using 0.05% Tween for 1 hour at room temperature on a shaker. The blocking buffer was discarded and 50 μL of primary antibodies pERK (cell signaling Technology #9101L; Rabbit, 1:500) and GapDH (Millipore #MAB34; Mouse, 1:5000) diluted in Odyssey blocking buffer was added. The plates were incubated overnight at 4° C. on a shaker.
On Assay day 2, the primary antibody solution was removed. Each plate was washed 3× times with 150 μL of 1×PBST (PBS+0.1% Tween 20) and incubated with 50 μL of secondary antibodies: Anti-Rabbit (LI-COR Biosciences #926-32211) and Anti-Mouse (LI-COR Biosciences #68070) at 1:800 dilution in Odyssey blocking buffer with Tween at room temperature on a shaker for 2 hours (protected from light). The secondary antibody solution as removed and each plate was washed with PBST 3× times. Any liquid remaining was discarded and the plate was imaged using the Licor Odyssey machine according to the manufacturer's instruction, using a set focus length at 3 mm and both 800 nm and 700 nm filters. The GAPDH normalized scan values for each well were divided by the average of vehicle wells to get the % of pERK inhibition. The IC50 values were then calculated with the Graph pad Prism software.

[1] = target: T1, recombinant human SOS1 polypeptide (amino acids 560-1049) (Homo sapiens, UniProt Q07889); experiment: HTRF displacement assay: inhibition of labeled tracer binding to SOS1; conditions: Table A, Morrison equation for competitive binding
T1 construct: corresponding to amino acids 560-1049, expressed in E. Coli; made in house; host or cells: E. coli
T1 sequence (Q07889 560-1049): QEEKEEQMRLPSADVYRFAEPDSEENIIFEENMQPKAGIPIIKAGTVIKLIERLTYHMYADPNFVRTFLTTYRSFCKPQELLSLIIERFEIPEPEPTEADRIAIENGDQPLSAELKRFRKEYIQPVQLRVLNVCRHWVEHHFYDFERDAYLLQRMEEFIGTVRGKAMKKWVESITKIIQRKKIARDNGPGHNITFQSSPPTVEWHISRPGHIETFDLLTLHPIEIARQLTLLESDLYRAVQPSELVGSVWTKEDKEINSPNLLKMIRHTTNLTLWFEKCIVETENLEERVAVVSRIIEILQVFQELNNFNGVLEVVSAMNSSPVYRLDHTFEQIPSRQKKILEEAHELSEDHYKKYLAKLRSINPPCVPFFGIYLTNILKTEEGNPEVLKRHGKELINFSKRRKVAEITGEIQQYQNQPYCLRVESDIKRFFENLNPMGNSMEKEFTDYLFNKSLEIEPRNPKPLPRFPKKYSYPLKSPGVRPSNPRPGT

[2] = MKN-1, Table B, MKN1 or H358 cells (table does not say which), 0.5-1 hour incubation, read-out: IC50 (nM), pERK inhibition
[3] = MKN-1, Table B1, MKN1 or H358 cells (table does not say which), 0.5-1 hour incubation, read-out: IC50 (nM), pERK inhibition
[4] = MKN-1, read-out: IC50 (nM), pERK inhibition

IC50 (pERK in MKN1 cells; [2])	Compound	further results
286 nM	Cc1c(C#N)cccc1[C@@H](C)Nc1nnc(C)c2cc(Cl)c(N3CCOCC3)cc12 [7-2, (R)-3-(1-((6-chloro-4-methyl-7-morpholinophthalazin-1-yl)amino)ethyl)-2-methylbenzonitrile]	
250 nM	Cc1c(C#N)cccc1[C@@H](C)Nc1nnc(C)c2cnc(N[C@H]3CCN(C)C3)cc12 [Example 1-30, 2-methyl-3-((R)-1-((4-methyl-7-(((S)-1-methylpyrrolidin-3-yl)amino)pyrido[3,4-d]pyridazin-1-yl)amino)ethyl)benzonitrile]	
128 nM	Cc1c(C#N)cccc1[C@@H](C)Nc1nnc(C)c2cnc(N[C@@H]3CCN(C)C3)cc12 [Example 1-31, 2-methyl-3-((R)-1-((4-methyl-7-(((R)-1-methylpyrrolidin-3-yl)amino)pyrido[3,4-d]pyridazin-1-yl)amino)ethyl)benzonitrile]	
99 nM	Cc1c(C#N)cccc1[C@@H](C)Nc1nnc(C)c2cnc(N3CCN(C)C(=O)C3)cc12 [Example 1-45, (R)-2-methyl-3-(1-((4-methyl-7-(4-methyl-3-oxopiperazin-1-yl)pyrido[3,4-d]pyridazin-1-yl)amino)ethyl)benzonitrile]	
121 nM	Cc1c(C#N)cccc1[C@@H](C)Nc1nnc(C)c2cnc(N3C[C@@H](C)N(C)[C@@H](C)C3)cc12 [Example 1-67, 2-methyl-3-((R)-1-((4-methyl-7-((3R,5S)-3,4,5-trimethylpiperazin-1-yl)pyrido[3,4-d]pyridazin-1-yl)amino)ethyl)benzonitrile]	
61 nM	Cc1c(C#N)cccc1[C@@H](C)Nc1nnc(C)c2cnc(N3C[C@H](C)N(C)[C@@H](C)C3)cc12 [Example 1-68, 2-methyl-3-((R)-1-((4-methyl-7-((3S,5S)-3,4,5-trimethylpiperazin-1-yl)pyrido[3,4-d]pyridazin-1-yl)amino)ethyl)benzonitrile]	
590 nM	Cc1c(C#N)cccc1[C@@H](C)Nc1nnc(C)c2cnc(N3C[C@@H]4C[C@H]3CN4)cc12 [Example 1-75, 3-((R)-1-((7-((1S,4S)-2,5-diazabicyclo[2.2.1]heptan-2-yl)-4-methylpyrido[3,4-d]pyridazin-1-yl)amino)ethyl)-2-methylbenzonitrile]	
53.9 nM	Cc1c(C#N)cccc1[C@@H](C)Nc1nnc(C)c2cnc(N(C)[C@@H]3CCN(C(C)C)C3)cc12 [Example 1-78, 3-((R)-1-((7-(((R)-1-isopropylpyrrolidin-3-yl)(methyl)amino)-4-methylpyrido[3,4-d]pyridazin-1-yl)amino)ethyl)-2-methylbenzonitrile]	
75.2 nM	Cc1c(C#N)cccc1[C@@H](C)Nc1nnc(C)c2cnc(N(C)[C@H]3CCN(C(C)C)C3)cc12 [Example 1-79, 3-((R)-1-((7-(((S)-1-isopropylpyrrolidin-3-yl)(methyl)amino)-4-methylpyrido[3,4-d]pyridazin-1-yl)amino)ethyl)-2-methylbenzonitrile]	
60.9 nM	Cc1c(C#N)cccc1[C@@H](C)Nc1nnc(C)c2cnc(N3CC4(COC4)C3)cc12 [Example 1-80, (R)-2-methyl-3-(1-((4-methyl-7-(2-oxa-6-azaspiro[3.3]heptan-6-yl)pyrido[3,4-d]pyridazin-1-yl)amino)ethyl)benzonitrile]	
120 nM	Cc1c(C#N)cccc1[C@@H](C)Nc1nnc(C)c2cc(F)c(N3CCOCC3)cc12 [Example 4-12, (R)-3-(1-((6-fluoro-4-methyl-7-morpholinophthalazin-1-yl)amino)ethyl)-2-methylbenzonitrile]	

Further lines, the compound ahead of its results:

Compound	IC50 (pERK in MKN1 cells; [2])	further results
Cc1nnc(N[C@H](C)c2cccc(C(F)(F)F)c2F)c2cc(N(C)[C@H]3CCN(C)C3)ncc12 [Example 1-28, N^1-((R)-1-(2-fluoro-3-(trifluoromethyl)phenyl)ethyl)-N^7,4-dimethyl-N^7-((S)-1-methylpyrrolidin-3-yl)pyrido[3,4-d]pyridazine-1,7-diamine]	52.3 nM	
Cc1nnc(N[C@H](C)c2cccc(C(F)(F)F)c2F)c2cc(N(C)[C@@H]3CCN(C)C3)ncc12 [Example 1-29, N^1-((R)-1-(2-fluoro-3-(trifluoromethyl)phenyl)ethyl)-N^7,4-dimethyl-N^7-((R)-1-methylpyrrolidin-3-yl)pyrido[3,4-d]pyridazine-1,7-diamine]	41 nM	
Cc1nnc(N[C@H](C)c2ccc(C#N)cc2F)c2cc(N3CCN(C)CC3)ncc12 [Example 1-98, (R)-3-fluoro-4-(1-((4-methyl-7-(4-methylpiperazin-1-yl)pyrido[3,4-d]pyridazin-1-yl)amino)ethyl)benzonitrile]	186 nM	
Cc1c(C#N)cccc1[C@@H](C)Nc1nnc(C)c2cc(F)c(N3CC(C)(N(C)C)C3)cc12 [Example 4-8, (R)-3-(1-((7-(3-(dimethylamino)-3-methylazetidin-1-yl)-6-fluoro-4-methylphthalazin-1-yl)amino)ethyl)-2-methylbenzonitrile]	109 nM	
Cc1nnc(N[C@H](C)c2cccc(C(F)F)c2F)c2cc(N3CCN(C)CC3)c(F)cc12 [Example 4-20, (R)-N-(1-(3-(difluoromethyl)-2-fluorophenyl)ethyl)-6-fluoro-4-methyl-7-(4-methylpiperazin-1-yl)phthalazin-1-amine]		Ki [1]: 0.547 nM
COc1cc2c(C)nnc(N[C@H](C)c3cccc(C#N)c3C)c2cc1O[C@H]1CCOC1 [Example 6-15, 3-((R)-1-((6-methoxy-4-methyl-7-(((S)-tetrahydrofuran-3-yl)oxy)phthalazin-1-yl)amino)ethyl)-2-methylbenzonitrile]	165 nM	
Cc1nnc(N[C@H](C)c2cccc(C(C)(F)F)c2F)c2cc(N3CCN(C)CC3)c(C#N)cc12 [Example 6-21, (R)-1-((1-(3-(1,1-difluoroethyl)-2-fluorophenyl)ethyl)amino)-4-methyl-7-(4-methylpiperazin-1-yl)phthalazine-6-carbonitrile]		Ki [1]: 1.05 nM
Cc1c(C#N)cccc1[C@@H](C)Nc1nnc(C)c2cnc(N3CCc4nn(C)cc4C3)cc12 [Example P-51, (R)-2-methyl-3-(1-((4-methyl-7-(2-methyl-2,4,6,7-tetrahydro-5H-pyrazolo[4,3-c]pyridin-5-yl)pyrido[3,4-d]pyridazin-1-yl)amino)ethyl)benzonitrile]		IC50 (pERK in MKN1 cells; [3]): 120 nM
Cc1c(C#N)cccc1[C@@H](C)Nc1nnc(C)c2c(C)nc(N3CCN(C)CC3)cc12 [Example P-189, (R)-3-(1-((4,5-dimethyl-7-(4-methylpiperazin-1-yl)pyrido[3,4-d]pyridazin-1-yl)amino)ethyl)-2-methylbenzonitrile]		IC50 (pERK in MKN1 cells; [3]): 57 nM
COc1cc2cnnc(N[C@H](C)c3cccc4ccccc34)c2cc1OC [Example P-210, (R)-6,7-dimethoxy-N-(1-(naphthalen-1-yl)ethyl)phthalazin-1-amine formic acid salt]		IC50 (pERK in MKN1 cells; [4]): > 10000 nM
Cc1c(Br)cccc1[C@@H](C)Nc1nnc(C)c2cnc(N3CCOCC3)cc12 [Example P-213, (R)-N-(1-(3-bromo-2-methylphenyl)ethyl)-4-methyl-7-morpholinopyrido[3,4-d]pyridazin-1-amine formic acid salt]		IC50 (pERK in MKN1 cells; [4]): 114 nM
Cc1c(C#N)cccc1[C@@H](C)Nc1nnc(C)c2cnc(N3CCC34CN(CCCF)C4)cc12 [Example P-228, (R)-3-(1-((7-(6-(3-fluoropropyl)-1,6-diazaspiro[3.3]heptan-1-yl)-4-methylpyrido[3,4-d]pyridazin-1-yl)amino)ethyl)-2-methylbenzonitrile]		IC50 (pERK in MKN1 cells; [3]): 68.4 nM
